From patent US8349889B2, “Skin-care preparations containing mupirocin and betamethasone dipropionate” (Laboratorios Dermatologicos Darier, S.A. DE C.V., priority 2005, dated 2013) come the findings set out here.

Where “and” joins values, the source holds several entries; their conditions need not be identical. Equal entries are not always repeated.

Series [1] can be described thus: Incompatibility tests, active evaluation immediately after preparation. The class given is physicochemical. The note with it: for Active evaluation, Test 1: actives + PEG 40 hydrogenated castor oil, analysed immediately after preparation; for Active evaluation, Test 2: as Test 1 + butyl hydroxy toluene; for Active evaluation, Test 3: as Test 2 + propyl paraben; for Active evaluation, Test 4: as Test 3 + methyl paraben; for Active evaluation, Test 5: as Test 4 + glycerin; for Active evaluation, Test 6: as Test 5 + mineral oil; for Active evaluation, Test 7: as Test 6 + white petrolatum. Details: unit not given here. The method, then:
In order to test the possible incompatibility of mupirocin with one of the excipients the following tests reported in Table No. 4 were performed and the results are the following: [table]

A short description of series [2]: Simple incorporation of the active in white petrolatum at 60° C. In kind it is physicochemical. The following applies: incorporated in white petrolatum at 60° C.; cream color gummy hard precipitate forms. As for the experimental part: According to the results it can be concluded that mupirocin in the presence of white petrolatum undergoes a possible chemical degrading. It then followed a simple incorporation of the active in the white petrolatum at a temperature of 60° C. and it was seen that immediately a cream color precipitate forms having a gummy appearance and hard. […] Therefore, this ointment base with mupirocin is discarded.

Series [3] is described as follows: Active evaluation (USP23 NF/21) of polyethylene glycol based formula, three samples. The class given is physicochemical. The note with it: formula with PEG 40 hydrogenated castor oil, polyethylene glycol 600, PEG 150 distearate, methyl paraben; Samples 1-3; specification 90.0 to 110.0%. As for the experimental part:
Taking the experience that mupirocin and betamethasone dipropionate are soluble at 60° C. in PEG 40 hydrogenated castor oil and in polyethylene glycol 600 (according to Table No. 2), a formulation having the following ingredients is proposed: mupirocin and betamethasone dipropionate (active ingredients), PEG 40 hydrogenated castor oil (cosolvent), polyethylene glycol 600 (balance excipient or carrier), PEG 150 distearate (thickener) and methyl paraben (preservative). The manufacturing process was the following: In an appropriate size vessel the polyethylene glycol 600 and PEG 40 hydrogenated castor oil were placed, this mixture was heated up to a temperature of 70° C. and then the methyl paraben, mupirocin and betamethasone dipropionate were dissolved; once all the above ingredients were dissolved, the temperature was lowered with constant mixing until reaching 60° C.; it was then added the PEG 150 distearate and continued mixing until the mixture was homogenous; the final product was obtained after lowering the temperature with constant mixing until reaching ambient temperature.
(§1) Once the product was obtained three samples were analyzed, collected from different parts of the vessel containing the product, by Active Evaluation techniques reported for each of them in the individual monographs included in USP23 NF/21.

The nature of a further series: Bactericide action tests. The following applies: at the concentrations obtained in a 2% topical formulation.
The nature of series [4]: Active evaluation (USP23 NF/21) of white petrolatum ointment base formula, three samples. In kind it is physicochemical. The note with it: Samples 1-3 from different parts of the vessel, specification 90.0 to 110.0%. As for the experimental part:
As for the ointment base determination, an ointment base having the following components was tested: white petrolatum (carrier), NF 85 mineral oil (texture and appearance modifier), PEG 40 hydrogenated castor oil (solvent), glycerin (moistener), butyl hydroxy toluene (antioxidant), methyl paraben and propyl paraben (preservatives), mupirocin and betamethasone dipropionate (active ingredients). The manufacture process was the following: In an appropriate size vessel the white petrolatum, mineral oil and glycerin were placed, this mixture was heated up to a temperature of 75° C. and then the butyl hydroxy toluene with the parabens was dissolved; separately in other suitable size vessel the PEG 40 hydrogenated castor oil was placed, heated up to a 60° C. temperature and mupirocin and betamethasone dipropionate were solved therein; when both mixtures were at 60° C. they were mixed and the final product was obtained after lowering the temperature with constant mixing until reaching ambient temperature.
as §1

For the compound `C/C(=C\C(=O)OCCCCCCCCC(=O)O)C[C@@H]1OC[C@H](C[C@@H]2O[C@H]2[C@@H](C)[C@H](C)O)[C@@H](O)[C@H]1O` [Mupirocin], in series [1], the “Active evaluation, Test 1” value was found to be 98.8; the “Active evaluation, Test 2” value is listed as 99.3; the “Active evaluation, Test 3” value is reported as 98.7; the “Active evaluation, Test 4” value turned out to be 98.9. In series [1], the “Active evaluation, Test 5” value is reported as 99.0; the “Active evaluation, Test 6” value is on record as 98.8; the “Active evaluation, Test 7” value was 69.8. In series [2], the “Compatibility with white petrolatum” value is “incompatible with white petrolatum”. Further, in series [3], the “Evaluation Results” value is 98.7% and 99.1% and 99.4%. For the same compound, the bactericide action result in the series “Bactericide action tests” is reported as “has bactericide action”. Besides, the “Evaluation Results” value in series [4] was 70.5% and 71.2% and 70.7%.

On to `CCC(=O)OCC(=O)[C@@]1(OC(=O)CC)[C@@H](C)C[C@H]2[C@@H]3CCC4=CC(=O)C=C[C@]4(C)[C@@]3(F)[C@@H](O)C[C@@]21C` [Betamethasone dipropionate], for which, in series [1], the “Active evaluation, Test 1” value was 100.2; the “Active evaluation, Test 2” value is listed as 100.3; the “Active evaluation, Test 3” value is 100.2; the “Active evaluation, Test 4” value amounted to 99.8. Besides, in series [1], the “Active evaluation, Test 5” value was 100.2; the “Active evaluation, Test 6” value is on record as 100.4; the “Active evaluation, Test 7” value amounted to 99.3. The “Evaluation Results” value in series [3] was 99.8% and 100.3% and 100.1%. Also, the “Evaluation Results” value in series [4] is 100.6% and 100.2%.
